Assay results reported in PubChem BioAssay (NCI).
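Values below derive from 48-hour exposures of cells grown in 96-well plates, with endpoints linearly interpolated between the two concentrations bracketing the appropriate inhibition level. GI50 marks 50% less growth. TGI marks complete inhibition of growth.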

Tests used:
Assay in all cases: growth of human tumour cells (NCI), 48 h
[1] = system: KM12 colon
[2] = system: UACC-257 melanoma
[3] = system: ACHN renal
[4] = system: NCI-H460 lung
[5] = system: MDA-MB-435
[6] = system: UACC-62 melanoma
[7] = system: HCT-116 colon
[8] = system: LOX IMVI melanoma
[9] = system: NCI-H226 lung
[10] = system: A549 NSCLC
[11] = system: 786-0 renal
[12] = system: OVCAR-4 ovarian
[13] = system: MDA-MB-231 breast
[14] = system: HCC-2998 colon
[15] = system: MOLT-4 leukemia
[16] = system: CCRF-CEM leukemia
[17] = system: SF-268 CNS
[18] = system: SK-MEL-28 melanoma
[19] = system: TK-10 renal
[20] = system: T-47D breast
[21] = system: COLO 205 colon
[22] = system: HOP-62 NSCLC
[23] = system: SN12C renal
[24] = system: OVCAR-8 ovarian
[25] = system: SR leukemia
[26] = system: NCI-H522 lung
[27] = system: SF-295 CNS
[28] = system: NCI-H23 lung
[29] = system: SNB-75 CNS
[30] = system: OVCAR-5 ovarian
[31] = system: HL-60(TB) leukemia
[32] = system: RXF 393 renal
[33] = system: DU-145 prostate
[34] = system: SK-OV-3 ovarian
[35] = system: SK-MEL-5 melanoma
[36] = system: UO-31 renal
[37] = system: CAKI-1 renal
[38] = system: U251 CNS
[39] = system: SNB-19 CNS
[40] = system: IGROV1 ovarian
[41] = system: RPMI-8226 leukemia
[42] = system: MCF7 breast
[43] = system: HT29 colon
[44] = system: HCT-15 colon
[45] = system: HS 578T breast
[46] = system: BT-549 breast
[47] = system: SF-539 CNS
[48] = system: NCI/ADR-RES ovarian
[49] = system: M14 melanoma
[50] = system: MALME-3M melanoma
[51] = system: SK-MEL-2 melanoma
[52] = system: OVCAR-3 ovarian
[53] = system: SW-620 colon
[54] = system: HOP-92 NSCLC
[55] = system: EKVX NSCLC
[56] = system: K-562 leukemia
[57] = system: A498 renal
[58] = system: PC-3 prostate

For `CN(C)CCC(=O)C(=Cc1ccc(O)cc1)C(=O)CCN(C)C`, the GI50 [1] was 41900 nM, the TGI [1] was over 100000 nM and the GI50 [2] was over 100000 nM. The TGI [2] was over 100000 nM, the GI50 [3] was over 100000 nM and the TGI [3] was over 100000 nM. It also gave a GI50 [4] of over 100000 nM, a TGI [4] of over 100000 nM and a GI50 [5] of over 100000 nM. The TGI [5] was over 100000 nM, the GI50 [6] was over 100000 nM and the TGI [6] was over 100000 nM. The GI50 [7] was 44800 nM, the TGI [7] was over 100000 nM and the GI50 [8] was 79600 nM. It also gave a TGI [8] of over 100000 nM, a GI50 [9] of over 100000 nM and a TGI [9] of over 100000 nM. The GI50 [10] was over 100000 nM, the TGI [10] was over 100000 nM and the GI50 [11] was over 100000 nM. It also gave a TGI [11] of over 100000 nM, a GI50 [12] of 26200 nM and a TGI [12] of over 100000 nM. For the same compound, the GI50 [13] was over 100000 nM, the TGI [13] was over 100000 nM and the GI50 [14] was over 100000 nM. It also gave a TGI [14] of over 100000 nM, a GI50 [15] of 80000 nM and a TGI [15] of over 100000 nM. The GI50 [16] was 43400 nM, the TGI [16] was over 100000 nM and the GI50 [17] was over 100000 nM. For the same compound, the TGI [17] was over 100000 nM, the GI50 [18] was over 100000 nM and the TGI [18] was over 100000 nM. For the same compound, the GI50 [19] was over 100000 nM, the TGI [19] was over 100000 nM and the GI50 [20] was 47700 nM. It also gave a TGI [20] of over 100000 nM, a GI50 [21] of 50900 nM and a TGI [21] of over 100000 nM. It also gave a GI50 [22] of over 100000 nM, a TGI [22] of over 100000 nM and a GI50 [23] of over 100000 nM. For the same compound, the TGI [23] was over 100000 nM, the GI50 [24] was over 100000 nM and the TGI [24] was over 100000 nM. For the same compound, the GI50 [25] was 93200 nM, the TGI [25] was over 100000 nM and the GI50 [26] was 16400 nM. For the same compound, the TGI [26] was 38900 nM, the GI50 [27] was over 100000 nM and the TGI [27] was over 100000 nM. It also gave a GI50 [28] of over 100000 nM, a TGI [28] of over 100000 nM and a GI50 [29] of over 100000 nM. The TGI [29] was over 100000 nM, the GI50 [30] was over 100000 nM and the TGI [30] was over 100000 nM. It also gave a GI50 [31] of over 100000 nM, a TGI [31] of over 100000 nM and a GI50 [32] of over 100000 nM. It also gave a TGI [32] of over 100000 nM, a GI50 [33] of over 100000 nM and a TGI [33] of over 100000 nM. The GI50 [34] was over 100000 nM, the TGI [34] was over 100000 nM and the GI50 [35] was over 100000 nM. The TGI [35] was over 100000 nM, the GI50 [36] was 25200 nM and the TGI [36] was 69800 nM. It also gave a GI50 [37] of 16400 nM, a TGI [37] of 32500 nM and a GI50 [38] of 61500 nM. It also gave a TGI [38] of over 100000 nM, a GI50 [39] of over 100000 nM and a TGI [39] of over 100000 nM. The GI50 [40] was over 100000 nM, the TGI [40] was over 100000 nM and the GI50 [41] was 27800 nM. It also gave a TGI [41] of over 100000 nM, a GI50 [42] of 30900 nM and a TGI [42] of over 100000 nM. The GI50 [43] was 34400 nM, the TGI [43] was over 100000 nM and the GI50 [44] was 52500 nM. For the same compound, the TGI [44] was over 100000 nM, the GI50 [45] was over 100000 nM and the TGI [45] was over 100000 nM. It also gave a GI50 [46] of over 100000 nM, a TGI [46] of over 100000 nM and a GI50 [47] of over 100000 nM. The TGI [47] was over 100000 nM, the GI50 [48] was over 100000 nM and the TGI [48] was over 100000 nM. The GI50 [49] was over 100000 nM, the TGI [49] was over 100000 nM and the GI50 [50] was over 100000 nM. The TGI [50] was over 100000 nM, the GI50 [51] was over 100000 nM and the TGI [51] was over 100000 nM. It also gave a GI50 [52] of over 100000 nM, a TGI [52] of over 100000 nM and a GI50 [53] of 67200 nM. The TGI [53] was over 100000 nM, the GI50 [54] was 95600 nM and the TGI [54] was over 100000 nM. It also gave a GI50 [55] of over 100000 nM and a TGI [55] of over 100000 nM.

With `O=C1CCC/C=C\C[C@H]2C=CC(=O)/C2=C/C[C@H](C/C=C\CC(F)(F)F)O1` the GI50 [1] was 299 nM, the TGI [1] was 635 nM and the GI50 [3] was 333 nM. It also gave a TGI [3] of 629 nM, a GI50 [4] of 508 nM and a TGI [4] of 1730 nM. The GI50 [56] was 503 nM, the TGI [56] was 2600 nM and the GI50 [5] was 449 nM. The TGI [5] was 1420 nM, the GI50 [6] was 280 nM and the TGI [6] was 765 nM. It also gave a GI50 [7] of 311 nM, a TGI [7] of 614 nM and a GI50 [8] of 288 nM. For the same compound, the TGI [8] was 591 nM, the GI50 [9] was 382 nM and the TGI [9] was 1010 nM. For the same compound, the GI50 [10] was 528 nM, the TGI [10] was 2380 nM and the GI50 [11] was 311 nM. It also gave a TGI [11] of 677 nM, a GI50 [12] of 571 nM and a TGI [12] of 2500 nM. For the same compound, the GI50 [13] was 722 nM, the TGI [13] was 5630 nM and the GI50 [14] was 384 nM. The TGI [14] was 733 nM, the GI50 [15] was 984 nM and the TGI [15] was 7510 nM. The GI50 [16] was 465 nM, the TGI [16] was 1710 nM and the GI50 [17] was 522 nM. The TGI [17] was 2120 nM, the GI50 [18] was 571 nM and the TGI [18] was 2250 nM. It also gave a GI50 [19] of 618 nM, a TGI [19] of 2170 nM and a GI50 [57] of 2560 nM. The TGI [57] was 4890 nM, the GI50 [20] was 635 nM and the TGI [20] was 2860 nM. It also gave a GI50 [21] of 368 nM, a TGI [21] of 726 nM and a GI50 [22] of 333 nM. For the same compound, the TGI [22] was 757 nM, the GI50 [23] was 492 nM and the TGI [23] was 2040 nM. The GI50 [24] was 423 nM, the TGI [24] was 1340 nM and the GI50 [26] was 257 nM. The TGI [26] was 537 nM, the GI50 [27] was 401 nM and the TGI [27] was 1130 nM. The GI50 [28] was 698 nM, the TGI [28] was 3670 nM and the GI50 [29] was 806 nM. It also gave a TGI [29] of 3220 nM, a GI50 [30] of 670 nM and a TGI [30] of 3110 nM. For the same compound, the GI50 [31] was 495 nM, the TGI [31] was 2580 nM and the GI50 [32] was 424 nM. It also gave a TGI [32] of 1400 nM, a GI50 [33] of 607 nM and a TGI [33] of 2330 nM. The GI50 [34] was 757 nM, the TGI [34] was 3020 nM and the GI50 [35] was 342 nM. The TGI [35] was 780 nM, the GI50 [36] was 298 nM and the TGI [36] was 624 nM. It also gave a GI50 [37] of 417 nM, a TGI [37] of 1280 nM and a GI50 [38] of 419 nM. It also gave a TGI [38] of 1750 nM, a GI50 [39] of 867 nM and a TGI [39] of 3710 nM. It also gave a GI50 [40] of 596 nM, a TGI [40] of 1980 nM and a GI50 [41] of 275 nM. The TGI [41] was 858 nM, the GI50 [42] was 336 nM and the TGI [42] was 3160 nM. The GI50 [43] was 352 nM, the TGI [43] was 696 nM and the GI50 [44] was 316 nM. For the same compound, the TGI [44] was 867 nM, the GI50 [45] was 1170 nM and the TGI [45] was 9680 nM. For the same compound, the GI50 [46] was 292 nM, the TGI [46] was 659 nM and the GI50 [47] was 676 nM. It also gave a TGI [47] of 3080 nM, a GI50 [48] of 627 nM and a TGI [48] of 16700 nM. It also gave a GI50 [49] of 493 nM, a TGI [49] of 1700 nM and a GI50 [50] of 587 nM. It also gave a TGI [50] of 2290 nM, a GI50 [51] of 365 nM and a TGI [51] of 1190 nM. For the same compound, the GI50 [52] was 538 nM, the TGI [52] was 1750 nM and the GI50 [58] was 574 nM. The TGI [58] was 2710 nM, the GI50 [53] was 508 nM and the TGI [53] was 2050 nM. The GI50 [54] was 1850 nM, the TGI [54] was 5010 nM and the GI50 [55] was 893 nM. It also gave a TGI [55] of 3420 nM.
